# From PMC11676834, “Composition of Triterpene Glycosides of the Far Eastern Sea Cucumber Cucumaria conicospermium Levin et Stepanov; Structure Elucidation of Five Minor Conicospermiumosides A3-1, A3-2, A3-3, A7-1, and A7-2; Cytotoxicity of the Glycosides Against Human Breast Cancer Cell Lines; Structure–Activity …” (Marine Drugs, 2024)
# Like-named read-outs stand apart in the source and are kept apart here.
# Columns and labels:
# [1] = tested on: MCF-10A cells; test: Colony formation (clonogenic) assay, MCF-10A; assay type: cell-based, human
# Description: The influence of glycosides on colony formation by MCF-10A or MDA-MB-231 cells was tested by the clonogenic assay. Cell density: 0.3 × 10^2/mL for MDA-MB-231 and for MCF-10A cells per well; incubation conditions: 10–12 days, 37 °C, atmosphere with 5% CO2; obtained: visible to eye colonies (at least 50 cells per colony); fixation with methanol (25 min); staining with 0.5% solution of crystal violet (25 min); washing and air-drying of plates. The counting of grown colonies was carried out using a BIO-PRINT-Cx4 Edge-Fixed Pad-Container (Vilber, Collégien, France) using Bio-Vision Software user and service manual-v18.01 (Vilber, Collégien, France). The results are presented as colony inhibition in comparison with the control.
# [2] = tested on: MDA-MB-231 cells; test: cells; assay type: cell-based, human
# Description: (§1) Human erythrocytes were purchased from the Station of Blood Transfusion, Vladivostok. Human mammary epithelial cell line MCF-10A CRL-10317, human breast cancer cell lines T-47D HTB-133, MCF-7 HTB-22, and MDA-MB-231 CRM-HTB-26 were received from ATCC (Manassas, VA, USA). Culturing conditions: medium of RPMI-1640 with 1% penicillin/streptomycin (Biolot, St. Petersburg, Russia) and 10% fetal bovine serum (FBS) (Biolot, St. Petersburg, Russia) for the T-47D cell line; Minimum Essential Medium (MEM) with 1% penicillin/streptomycin sulfate (Biolot, St. Petersburg, Russia) and FBS (Biolot, St. Petersburg, Russia) to a final concentration of 10% for MCF-7 and MDA-MB-231 cells; DMEM/F12 medium with 10% FBS, 20 ng/mL EGF, […] hydrocortisone, 100 ng/mL cholera toxin, 10 μg/mL insulin, and 1% penicillin/streptomycin (BioinnLabs, Rostov-on-Don, Russia) for MCF-10A cell line.
# (§2) The concentrations of tested glycosides were 0.1–50 µM; positive controls were cisplatin and okhotoside A1-1 (7). […] Then, the solutions of tested compounds with medium were replaced by 100 µL of fresh medium, and 10 µL of 3-(4,5-dimethylthiazol-2-yl)-2,5-diphenyltetrazolium bromide (MTT) (PanReac, AppliChem, Darmstadt, Germany) stock solution (5 mg/mL) was added to each well and incubated for 4 h, followed by the addition of 100 µL of SDS-HCl solution (1 g SDS/10 mL d-H2O/17 µL 6 N HCl) and further incubated for 18 h. Multiskan FC microplate photometer (Thermo Fisher Scientific, Waltham, MA, USA) was used to measure the absorbance of the converted dye formazan at 570 nm. The concentration caused the 50% cell metabolic activity inhibition (IC50) expresses the cytotoxic activity of each glycoside. The experiments were conducted in triplicate, p ≤ 0.05.
# [3] = tested on: T-47D cells; test: cells; assay type: cell-based, human; settings: MTT, 24 h, read-out: Cytotoxicity, IC50, T-47D
# Description: as §1
# (§3) The concentrations of tested glycosides were 0.1–50 µM; positive controls were cisplatin and okhotoside A1-1 (7). Methodology: to each well of 96-well plates, the cell suspension (180 µL) with solution (20 µL) of tested glycoside in a certain concentration was placed (MCF-10A, MCF-7, T-47D, and MDA-MB-231—7 × 10^3 cells per well) and incubated in the atmosphere with 5% CO2 at 37 °C for 24 h. Then, the solutions of tested compounds with medium were replaced by 100 µL of fresh medium, and 10 µL of 3-(4,5-dimethylthiazol-2-yl)-2,5-diphenyltetrazolium bromide (MTT) (PanReac, AppliChem, Darmstadt, Germany) stock solution (5 mg/mL) was added to each well and incubated for 4 h, followed by the addition of 100 µL of SDS-HCl solution (1 g SDS/10 mL d-H2O/17 µL 6 N HCl) and further incubated for 18 h. Multiskan FC microplate photometer (Thermo Fisher Scientific, Waltham, MA, USA) was used to measure the absorbance of the converted dye formazan at 570 nm. The concentration caused the 50% cell metabolic activity inhibition (IC50) expresses the cytotoxic activity of each glycoside. The experiments were conducted in triplicate, p ≤ 0.05.
# [4] = tested on: MCF-7 cells; test: cells; assay type: cell-based, human; settings: MTT, 24 h, read-out: Cytotoxicity, IC50, MCF-7
# Description: as §1, §3
# [5] = tested on: MCF-10A cells; test: in vitro; assay type: cell-based, human
# Description: as §1, §2
# [6] = tested on: human erythrocytes; test: Hemolytic activity; assay type: cell-based; settings: 1 h at 37 °C
# Description: Human blood (B(III) Rh+) was used to obtain erythrocytes by centrifuging 450× g three times for 5 min with phosphate-buffered saline (PBS) (pH 7.4) at 4 °C on centrifuge LABOFUGE 400R (Heraeus, Hanau, Germany). Ice-cold PBS (pH 7.4) was used for resuspension of erythrocytes residue to a final optical density of 1.5 at 700 nm, which was kept on ice. Then, 10 µL of tested compound solution or control (okhotoside A1-1 (7)) were added to 90 µL of erythrocyte suspension in V-bottom 96-well plates and exposed for 1 h at 37 °C. Next, centrifugation at 900× g for 10 min on a laboratory centrifuge LMC-3000 (Biosan, Riga, Latvia), led to separation of layers, and 80 µL of supernatant was carefully decanted and transferred into new flat-plate for each. The values of erythrocyte lysis were measured on microplate photometer Multiskan FC (Thermo Fisher Scientific, Waltham, MA, USA) at λ = 570 nm as hemoglobin concentration in supernatant. The effective dose, causing lysis of 50% erythrocytes (ED50), was calculated with SigmaPlot 14.0 software. All the experiments were carried out in triple repetitions, p ≤ 0.05.
# [7] = tested on: human erythrocytes; design: method as in PMID 38132923; settings: studied earlier; ref [8]; cited from earlier work
# [8] = tested on: MDA-MB-231 cells; test: Wound scratch migration assay; assay type: cell-based, human; settings: 5 μM, 24 h
# Description: Attached to special migration plate plastic bottom MDA-MB-231 cells were separated by a silicone insert (Culture-insert 2 Well 24, ibiTreat). After removing an insert, the gap between the cells was 500 ± 50 μm. Cell debris and floating cells were deleted, and the fresh culture medium was added. Then, cells were treated with various concentrations of glycosides or culture medium only (vehicle control) and left for 24 hrs. Cell migration into the wound area was observed under a fluorescence microscope (MIB-2-FL, LOMO, Russia) with objective 10× magnification.
# [9] = in vitro; assay type: cell-based, human; settings: human
# Description: as §1, §2
# [10] = 48 h, read-out: Cytotoxicity, IC50, 48 h, MCF-10A
# [11] = 72 h, read-out: Cytotoxicity, IC50, 72 h, MCF-10A
# [12] = MTT, 24 h, read-out: Cytotoxicity, IC50, MCF-10A
molecule,measurement,setting,value
DS-okhotoside B1 [DS-okhotoside B1 (8a)],Influence on colony formation and growth of MCF-10A cells,[1]; 0.5 μM,did not influence
same,"Tumor cell selectivity index (SI), IC50 MCF-10A / IC50 MDA-MB-231",[2]; 24 h,9.06
same,"Tumor cell selectivity index (SI), IC50 MCF-10A / IC50 MDA-MB-231","[2]; 24 h, listed as 8a",~10
same,"Tumor cell selectivity index (SI), IC50 MCF-10A / IC50 MDA-MB-231",[2]; 48 h,2.21
same,IC50,"[2]; 48 h, read-out: Cytotoxicity, IC50, 48 h, MDA-MB-231",2.63 ± 0.14 µM
same,"Tumor cell selectivity index (SI), IC50 MCF-10A / IC50 MDA-MB-231",[2]; 72 h,4.62
same,IC50,"[2]; 72 h, read-out: Cytotoxicity, IC50, 72 h, MDA-MB-231",0.6 ± 0.03 µM
same,IC50,"[2]; MTT, 24 h, read-out: Cytotoxicity, IC50, MDA-MB-231",1.09 ± 0.08 µM
same,IC50,[3],9.62 ± 0.3 µM
same,IC50,[4],18.8 ± 0.71 µM
same,IC50,[5]; [10],5.81 ± 0.46 µM
same,IC50,[5]; [11],2.77 ± 0.25 µM
same,IC50,[5]; [12],9.87 ± 0.73 µM
same,"ED50, Erythrocytes (hemolytic activity)",[6],0.33 ± 0.03 µM
"CO[C@@H]1[C@@H](O)[C@H](O[C@@H]2[C@@H](O)[C@H](O[C@H]3[C@H](O)[C@@H](O[C@@H]4OC[C@@H](O)[C@H](O)[C@H]4O)[C@H](O[C@H]4[C@H](O[C@H]5CC[C@]6(C)C7CC[C@]8(C)[C@@H]([C@@](C)(O)C(=O)CC=C(C)C)CC[C@@]8(C)C7=CC[C@H]6C5(C)C)OC[C@@H](OS(=O)(=O)[O-])[C@@H]4O)O[C@@H]3C)O[C@H](COS(=O)(=O)[O-])[C@H]2O)O[C@H](COS(=O)(=O)[O-])[C@H]1O.[Na+].[Na+].[Na+] (some centres unmarked) [djakonovioside F1 (15), djakonovioside F1]",Hemolytic activity (in words),[7],highly active
"C=C(C)CCC[C@]1(C)OC(=O)C23CC[C@H]4C(=CC[C@H]5C(C)(C)C(O[C@@H]6OC[C@@H](OS(=O)(=O)O)[C@H](O)[C@H]6O[C@@H]6O[C@H](CO)[C@@H](O[C@@H]7O[C@H](CO)[C@@H](O)[C@H](O[C@@H]8O[C@H](CO)[C@@H](O)[C@H](OC)[C@H]8O)[C@H]7O)[C@H](O)[C@H]6O[C@@H]6OC[C@@H](O)[C@H](O)[C@H]6O)CC[C@]45C)[C@]2(C)C[C@H](OC(C)=O)C31 (some centres unmarked) [Okhotoside B1 (8), okhotoside B1]",inhibition at 5 µM,"[1]; Homo sapiens, MCF-10A, 5 μM, % of the control",40.2%
same,"Tumor cell selectivity index (SI), IC50 MCF-10A / IC50 MDA-MB-231",[2]; 24 h,3.61
same,"Tumor cell selectivity index (SI), IC50 MCF-10A / IC50 MDA-MB-231",[2]; 48 h,1.32
same,"Tumor cell selectivity index (SI), IC50 MCF-10A / IC50 MDA-MB-231",[2]; 72 h,5.65
same,IC50,"[2]; Homo sapiens, MDA-MB-231, 48 h, read-out: Cytotoxicity, IC50, 48 h, MDA-MB-231",11.7 ± 1 µM
same,IC50,"[2]; Homo sapiens, MDA-MB-231, 72 h, read-out: Cytotoxicity, IC50, 72 h, MDA-MB-231",2.92 ± 0.07 µM
same,IC50,"[2]; Homo sapiens, MDA-MB-231, MTT, 24 h, read-out: Cytotoxicity, IC50, MDA-MB-231",11.3 ± 0.2 µM
same,IC50,"[3]; Homo sapiens, T47D",20.3 ± 0.85 µM
same,IC50,"[4]; Homo sapiens, MCF7",42.9 ± 2 µM
same,Constraint on cell motility (migration) of MDA-MB-231 cells,[8],97%
same,IC50,[9]; [10],15.5 ± 0.81 µM
same,IC50,[9]; [11],16.5 ± 0.98 µM
same,IC50,[9]; [12],41 ± 0.81 µM
same,HC50,"[6]; Erythrocyte, read-out: ED50, Erythrocytes (hemolytic activity)",1050 ± 120 nM
